# Data reported in ChEMBL document CHEMBL4334510, “Antitumor Activity of Vanicoside B Isolated from Persicaria dissitiflora by Targeting CDK8 in Triple-Negative Breast Cancer Cells” (J Nat Prod, 2019).
# The source made the active and inactive calls. The rule behind the calls is not given here.
# What was measured:
# [1] = Toxicity in Balb/c mouse xenografted with human MDA-MB-231 cells assessed as effect on body weight at 5 to 20 mg/kg, ip ip administered 3 times per week and measured 2 times per week for 29 days; type: organism-based; details: in vivo, 696 h
# [2] = molecular target: Cyclin-dependent kinase 8 (Homo sapiens) (UniProt P49336); assay: Inhibition of CDK8 in human HCC38 cells assessed as reduction in AXL expression after 24 hrs by Western blot analysis; type: cell-based
# [3] = system: MDA-MB-231; assay: Inhibition of epithelial-mesenchymal transition in human MDA-MB-231 cells reduction in vimentin protein expression after 24 hrs by Western blot analysis; type: functional, cell-based
# [4] = system: MDA-MB-231; assay: Antitumour activity against human MDA-MB-231 cells xenografted in Balb/c mouse assessed as reduction in tumour volume at 5 mg/kg, ip administered 3 times per week and measured 2 times per week for 29 days relative to control; type: functional; set-up: scale not given: the % may be the effect or the level left
# [5] = system: HCC38; assay: Antiproliferative activity against human HCC38 cells assessed as reduction in cell viability after 72 hrs by SRB assay; type: functional, cell-based
# [6] = system: MDA-MB-231; assay: Antitumour activity against human MDA-MB-231 cells xenografted in Balb/c mouse assessed as reduction in tumour volume at 20 mg/kg, ip administered 3 times per week and measured 2 times per week for 29 days relative to control; type: functional; set-up: scale not given: the % may be the effect or the level left
# [7] = molecular target: Cyclin-dependent kinase 8 (Homo sapiens) (UniProt P49336); assay: Inhibition of CDK8 in human HCC38 cells assessed as reduction in HK1 expression at 10 uM after 24 hrs by RT-PCR analysis; type: cell-based
# [8] = system: MDA-MB-231; assay: Induction of apoptosis in human MDA-MB-231 cells at 2.5 to 20 uM after 48 hrs by Annexin-V/PI staining based flow cytometric analysis; type: functional, cell-based
# [9] = molecular target: Cyclin-dependent kinase 8 (Homo sapiens) (UniProt P49336); assay: Inhibition of CDK8 in human MDA-MB-231 cells assessed as reduction in STAT3 phosphorylation after 24 hrs by Western blot analysis; type: cell-based
# [10] = molecular target: Cyclin-dependent kinase 8 (Homo sapiens) (UniProt P49336); assay: Inhibition of CDK8 in human HCC38 cells assessed as increase in P27 expression at 10 uM after 24 hrs by RT-PCR analysis; type: cell-based
# [11] = molecular target: Cyclin-dependent kinase 8 (Homo sapiens) (UniProt P49336); assay: Inhibition of CDK8 in human HCC38 cells assessed as reduction in S6 phosphorylation after 24 hrs by Western blot analysis; type: cell-based
# [12] = system: MDA-MB-231; assay: Inhibition of epithelial-mesenchymal transition in human MDA-MB-231 cells reduction in BMP4 protein expression after 24 hrs by Western blot analysis; type: functional, cell-based
# [13] = system: MDA-MB-231; assay: Inhibition of colony formation in human MDA-MB-231 cells assessed as reduction in number of colonies at 2.5 to 20 uM after 14 days by crystal violet staining based light microscopic analysis; type: functional, cell-based
# [14] = system: HCC38; assay: Inhibition of epithelial-mesenchymal transition in human HCC38 cells reduction in beta catenin protein expression after 24 hrs by Western blot analysis; type: functional, cell-based
# [15] = molecular target: Cyclin-dependent kinase 8 (Homo sapiens) (UniProt P49336); assay: Inhibition of CDK8 in human MDA-MB-231 cells assessed as increase in P27 expression after 48 hrs by Western blot analysis; type: cell-based
# [16] = system: HCC38; assay: Inhibition of colony formation in human HCC38 cells assessed as reduction in number of colonies at 2.5 to 20 uM after 14 days by crystal violet staining based light microscopic analysis; type: functional, cell-based
# [17] = system: Mus musculus; assay: Downregulation of Ki67 expression in Balb/c mouse xenografted with human MDA-MB-231 cells at 5 to 20 mg/kg, ip administered 3 times per week for 29 days by DAB staining based immunohistochemical analysis; type: functional, organism-based
# [18] = molecular target: Cyclin-dependent kinase 8 (Homo sapiens) (UniProt P49336); assay: Inhibition of CDK8 in human HCC38 cells assessed as increase in P27 expression after 48 hrs by Western blot analysis; type: cell-based
# [19] = system: Mus musculus; assay: Downregulation of AXL expression in Balb/c mouse xenografted with human MDA-MB-231 cells at 5 to 20 mg/kg, ip administered 3 times per week for 29 days by DAB staining based immunohistochemical analysis; type: functional, organism-based
# [20] = system: HCC38; assay: Induction of apoptosis in human HCC38 cells assessed as increase in PARP cleavage after 48 hrs by Western blot analysis; type: functional, cell-based
# [21] = system: HCC38; assay: Induction of apoptosis in human HCC38 cells at 2.5 to 20 uM after 48 hrs by Annexin-V/PI staining based flow cytometric analysis; type: functional, cell-based
# [22] = molecular target: Cyclin-dependent kinase 8 (Homo sapiens) (UniProt P49336); assay: Inhibition of CDK8 in human MDA-MB-231 cells assessed as reduction in AXL expression after 24 hrs by Western blot analysis; type: cell-based
# [23] = system: MDA-MB-231; assay: Antimigratory activity against human MDA-MB-231 cells at 1.25 to 5 uM after 24 hrs by scratch wound healing based microscopic analysis; type: functional, cell-based
# [24] = molecular target: Cyclin-dependent kinase 8 (Homo sapiens) (UniProt P49336); assay: Inhibition of CDK8 in human MDA-MB-231 cells assessed as reduction in STAT1 phosphorylation at Ser727 residue after 24 hrs by Western blot analysis; type: cell-based
# [25] = system: Mus musculus; assay: Downregulation of phosphorylated STAT1 expression at ser727 residue in Balb/c mouse xenografted with human MDA-MB-231 cells at 5 to 20 mg/kg, ip administered 3 times per week for 29 days by DAB staining based immunohistochemical analysis; type: functional, organism-based
# [26] = system: HCC38; assay: Inhibition of epithelial-mesenchymal transition in human HCC38 cells reduction in BMP4 protein expression after 24 hrs by Western blot analysis; type: functional, cell-based
# [27] = system: MDA-MB-231; assay: Inhibition of epithelial-mesenchymal transition in human MDA-MB-231 cells reduction in beta catenin protein expression after 24 hrs by Western blot analysis; type: functional, cell-based
# [28] = molecular target: Cyclin-dependent kinase 8 (Homo sapiens) (UniProt P49336); assay: Inhibition of CDK8 in human MDA-MB-231 cells assessed as increase in P27 expression at 10 uM after 24 hrs by RT-PCR analysis; type: cell-based
# [29] = system: HCC38; assay: Inhibition of epithelial-mesenchymal transition in human HCC38 cells reduction in N-cadherin expression at 5 uM after 24 hrs by RT-PCR analysis; type: functional, cell-based
# [30] = system: HCC38; assay: Cell cycle arrest in human HCC38 cells assessed as increase in accumulation of cells at sub-G1 phase at 2.5 to 10 uM by PI/RNase staining based flow cytometric analysis; type: functional
# [31] = system: MDA-MB-231; assay: Inhibition of epithelial-mesenchymal transition in human MDA-MB-231 cells increase in E-cadherin expression at 5 uM after 24 hrs by RT-PCR analysis; type: functional, cell-based
# [32] = system: MDA-MB-231; assay: Induction of apoptosis in human MDA-MB-231 cells assessed as increase in PARP cleavage after 48 hrs by Western blot analysis; type: functional, cell-based
# [33] = system: MDA-MB-231; assay: Antiproliferative activity against human MDA-MB-231 cells assessed as reduction in cell viability after 72 hrs by SRB assay; type: functional, cell-based
# [34] = system: HCC38; assay: Inhibition of epithelial-mesenchymal transition in human HCC38 cells increase in E-cadherin expression at 5 uM after 24 hrs by RT-PCR analysis; type: functional, cell-based
# [35] = system: MDA-MB-231; assay: Cell cycle arrest in human MDA-MB-231 cells assessed as increase in accumulation of cells at sub-G1 phase at 2.5 to 10 uM by PI/RNase staining based flow cytometric analysis; type: functional
# [36] = system: HCC38; assay: Inhibition of colony formation in human HCC38 cells assessed as reduction in colony size at 20 uM after 14 days by crystal violet staining based light microscopic analysis; type: functional, cell-based
# [37] = molecular target: Cyclin-dependent kinase 8 (Homo sapiens) (UniProt P49336); assay: Inhibition of CDK8 in human HCC38 cells assessed as reduction in STAT3 phosphorylation after 24 hrs by Western blot analysis; type: cell-based
# [38] = system: HCC38; assay: Inhibition of epithelial-mesenchymal transition in human HCC38 cells reduction in vimentin protein expression after 24 hrs by Western blot analysis; type: functional, cell-based
# [39] = system: HCC38; assay: Antimigratory activity against human HCC38 cells at 1.25 to 5 uM after 24 hrs by scratch wound healing based microscopic analysis; type: functional, cell-based
# [40] = molecular target: Cyclin-dependent kinase 8 (Homo sapiens) (UniProt P49336); assay: Inhibition of CDK8 in human HCC38 cells assessed as reduction in skp2 expression after 48 hrs by Western blot analysis; type: cell-based
# [41] = molecular target: Cyclin-dependent kinase 8 (Homo sapiens) (UniProt P49336); assay: Inhibition of CDK8 in human MDA-MB-231 cells assessed as reduction in HK1 expression at 10 uM after 24 hrs by RT-PCR analysis; type: cell-based
# [42] = system: MDA-MB-231; assay: Inhibition of epithelial-mesenchymal transition in human MDA-MB-231 cells reduction in N-cadherin expression at 5 uM after 24 hrs by RT-PCR analysis; type: functional, cell-based
# [43] = system: MDA-MB-231; assay: Inhibition of colony formation in human MDA-MB-231 cells assessed as reduction in colony size at 2.5 to 20 uM after 14 days by crystal violet staining based light microscopic analysis; type: functional, cell-based
# [44] = molecular target: Cyclin-dependent kinase 8 (Homo sapiens) (UniProt P49336); assay: Inhibition of CDK8 in human MDA-MB-231 cells assessed as reduction in S6 phosphorylation after 24 hrs by Western blot analysis; type: cell-based
# [45] = molecular target: Cyclin-dependent kinase 8 (Homo sapiens) (UniProt P49336); assay: Inhibition of CDK8 in human MDA-MB-231 cells assessed as reduction in skp2 expression after 48 hrs by Western blot analysis; type: cell-based
# [46] = molecular target: Cyclin-dependent kinase 8 (Homo sapiens) (UniProt P49336); assay: Inhibition of CDK8 in human HCC38 cells assessed as reduction in STAT1 phosphorylation at Ser727 residue after 24 hrs by Western blot analysis; type: cell-based
# [47] = system: Mus musculus; assay: Downregulation of Ki67 expression in Balb/c mouse xenografted with human MDA-MB-231 cells at 5 mg/kg, ip administered 3 times per week for 29 days by DAB staining based immunohistochemical analysis; type: functional, organism-based
# [48] = system: Mus musculus; assay: Downregulation of AXL expression in Balb/c mouse xenografted with human MDA-MB-231 cells at 5 mg/kg, ip administered 3 times per week for 29 days by DAB staining based immunohistochemical analysis; type: functional, organism-based
# [49] = system: Mus musculus; assay: Downregulation of phosphorylated STAT1 expression at ser727 residue in Balb/c mouse xenografted with human MDA-MB-231 cells at 5 mg/kg, ip administered 3 times per week for 29 days by DAB staining based immunohistochemical analysis; type: functional, organism-based
# [50] = Toxicity in Balb/c mouse xenografted with human MDA-MB-231 cells assessed as reduction in body weight at 5 mg/kg, ip ip administered 3 times per week and measured 2 times per week for 29 days; type: organism-based; details: in vivo, 696 h
# Sequence of Cyclin-dependent kinase 8 (Homo sapiens) (P49336 whole entry): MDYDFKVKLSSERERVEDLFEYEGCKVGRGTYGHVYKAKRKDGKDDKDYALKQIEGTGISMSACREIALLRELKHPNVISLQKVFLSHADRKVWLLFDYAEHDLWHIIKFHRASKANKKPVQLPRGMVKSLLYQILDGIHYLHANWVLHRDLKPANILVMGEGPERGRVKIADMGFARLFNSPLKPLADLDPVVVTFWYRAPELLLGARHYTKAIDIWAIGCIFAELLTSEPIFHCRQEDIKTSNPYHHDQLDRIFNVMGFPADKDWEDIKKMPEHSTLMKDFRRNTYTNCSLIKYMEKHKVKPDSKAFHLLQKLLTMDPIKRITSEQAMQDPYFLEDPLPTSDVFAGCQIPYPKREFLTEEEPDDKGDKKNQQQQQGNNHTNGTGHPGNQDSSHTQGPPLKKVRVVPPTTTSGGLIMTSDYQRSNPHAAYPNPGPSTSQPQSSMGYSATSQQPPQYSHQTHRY
compound,measurement,setting,value
COc1cc(/C=C/C(=O)OC[C@H]2O[C@H](O[C@]3(COC(=O)/C=C/c4ccc(O)cc4)O[C@H](COC(=O)/C=C/c4ccc(O)cc4)[C@@H](O)[C@@H]3OC(=O)/C=C/c3ccc(O)cc3)[C@H](O)[C@@H](O)[C@@H]2O)ccc1O [VANICOSIDE B],Activity,[1],Non-Toxic
same,inhibition,[2],Dose-dependent effect
same,inhibition,[3],Dose-dependent effect
same,Activity,[4],53.85%
same,Activity,[5],Dose-dependent effect
same,Activity,[6],65.72%
same,inhibition,[7],Active
same,Activity,[8],Active
same,inhibition,[9],Dose-dependent effect
same,inhibition,[10],Active
same,inhibition,[11],Dose-dependent effect
same,inhibition,[12],Dose-dependent effect
same,inhibition,[13],Active
same,inhibition,[14],Dose-dependent effect
same,inhibition,[15],Dose-dependent effect
same,inhibition,[16],Active
same,Activity,[17],Active
same,inhibition,[18],Dose-dependent effect
same,Activity,[19],Active
same,Activity,[20],Dose-dependent effect
same,Activity,[21],Active
same,inhibition,[22],Dose-dependent effect
same,Activity,[23],Active
same,inhibition,[24],Dose-dependent effect
same,Activity,[25],Active
same,inhibition,[26],Dose-dependent effect
same,inhibition,[27],Dose-dependent effect
same,inhibition,[28],Active
same,inhibition,[29],Active
same,Activity,[30],Active
same,inhibition,[31],Active
same,Activity,[32],Dose-dependent effect
same,Activity,[33],Dose-dependent effect
same,IC50,"[33]; MDA-MB-231, 72 h",9 µM
same,inhibition,[34],Active
same,Activity,[35],Active
same,inhibition,[36],Active
same,inhibition,[37],Dose-dependent effect
same,inhibition,[38],Dose-dependent effect
same,Activity,[39],Active
same,inhibition,[40],Dose-dependent effect
same,inhibition,[41],Active
same,inhibition,[42],Active
same,inhibition,[43],Active
same,inhibition,[44],Dose-dependent effect
same,inhibition,[45],Dose-dependent effect
same,inhibition,[46],Dose-dependent effect
CC(=O)O[C@H]1C(=O)[C@@]2(C)[C@H]([C@H](OC(=O)c3ccccc3)[C@]3(O)C[C@H](OC(=O)[C@H](O)[C@@H](NC(=O)c4ccccc4)c4ccccc4)C(C)=C1C3(C)C)[C@]1(OC(C)=O)CO[C@@H]1C[C@@H]2O [PACLITAXEL],Activity,[47],Active
same,Activity,[48],inactive
same,Activity,[49],inactive
same,Activity,[50],Toxic
